Data: ChEMBL document CHEMBL1201862, “PubChem BioAssay data set” (2004)
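These data come from cells grown in 96-well plates and exposed to compound for 48 hours at five concentrations. At the GI50, growth is halved.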 The source made the active and inactive calls. No stated cut-off is given here; in the data, active = GI50 up to about 1.1 µM and inactive = higher.

How the values were obtained:
Assay in all cases: growth of human tumour cells (NCI), 48 h
[1] = test system: 786-0
[2] = test system: CAKI-1
[3] = test system: EKVX
[4] = test system: HCC 2998
[5] = test system: HT-29
[6] = test system: LOX IMVI
[7] = test system: MDA-MB-435
[8] = test system: NCI-H226
[9] = test system: NCI-H23
[10] = test system: NCI/ADR-RES
[11] = test system: OVCAR-4
[12] = test system: SK-OV-3
[13] = test system: SNB-19
[14] = test system: U-251
[15] = test system: UACC-62
[16] = test system: HOP-62
[17] = test system: Malme-3M
[18] = test system: OVCAR-3
[19] = test system: A498

Measured: GI50

Cc1ccc(NC(=O)C(=O)C2C(=O)C3=C(CC2(C)C)NC2C=CC=CC2S3)c(C)c1 (stereo not given)
inactive: [1] 66.4 µM | [2] > 100 µM | [3] 73.8 µM | [4] > 100 µM | [5] > 100 µM | [6] > 100 µM | [7] > 100 µM | [8] 56.2 µM | [9] > 100 µM | [10] > 100 µM | [11] > 100 µM | [12] > 100 µM | [13] > 100 µM | [14] 59 µM | [15] > 100 µM

O=C1/C(=C/c2ccco2)N=C(c2ccccc2)N1c1ccc(S(=O)(=O)Nc2nccs2)cc1
inactive: [1] > 100 µM | [2] > 100 µM | [3] 33.2 µM | [4] > 100 µM | [16] > 100 µM | [5] > 100 µM | [6] > 100 µM | [7] > 100 µM | [17] > 100 µM | [8] > 100 µM | [9] > 100 µM | [10] > 100 µM | [18] 83.9 µM | [11] 69.2 µM | [12] > 100 µM | [14] 71.9 µM | [15] 93.5 µM

OC(c1cc2ccccc2o1)c1cc2ccccc2s1 (stereo not given)
inactive: [1] > 10 µM | [2] > 10 µM | [3] 7.23 µM | [4] > 10 µM | [16] > 10 µM | [5] > 10 µM | [6] > 10 µM | [7] 3.78 µM | [8] > 10 µM | [9] > 10 µM | [10] > 10 µM | [18] > 10 µM | [11] > 10 µM | [12] > 10 µM | [13] > 10 µM | [14] > 10 µM | [15] > 10 µM

O=C(O)CCC[C@]1(O)O[C@@]2(CCCC2=O)[C@]2(O)CCC[C@@]21O
inactive: [1] > 100 µM | [19] > 100 µM | [2] 26.5 µM | [3] > 100 µM | [16] > 100 µM | [5] > 100 µM | [6] > 100 µM | [17] > 100 µM | [8] > 100 µM | [9] > 100 µM | [10] > 100 µM | [18] > 100 µM | [11] > 100 µM | [13] > 100 µM | [14] > 100 µM | [15] > 100 µM

C/C(=C\COP(=O)(O)OP(=O)(O)O)CC/C=C(\C)CNc1ccc([N+](=O)[O-])cc1
inactive: [1] > 100 µM | [2] > 100 µM | [3] > 100 µM | [16] > 100 µM | [5] > 100 µM | [6] > 100 µM | [7] > 100 µM | [17] > 100 µM | [8] > 100 µM | [9] > 100 µM | [10] > 100 µM | [18] > 100 µM | [11] > 100 µM | [12] > 100 µM | [13] > 100 µM | [14] > 100 µM | [15] > 100 µM

CC1=CC(C)C(O)C(C)/C=C\C(O)C/C=C(/C)C(=O)CC(O)C(C)\C=C/C=C\C=C/C(=O)NC2=C(O)C(=O)c3c(cc(C)c(O)c3C1=O)C2=O (stereo not given)
inactive: [1] > 100 µM | [2] > 100 µM | [3] > 100 µM | [4] 86.1 µM | [16] > 100 µM | [5] 56.4 µM | [6] > 100 µM | [7] > 100 µM | [9] > 100 µM | [10] > 100 µM | [18] > 100 µM | [11] > 100 µM | [13] > 100 µM | [14] > 100 µM | [15] 97.7 µM

Nc1nc2c(ncn2Cc2ccccc2CCO)c(=O)[nH]1
inactive: [1] > 100 µM | [19] > 100 µM | [2] > 100 µM | [3] > 100 µM | [4] > 100 µM | [16] > 100 µM | [5] > 100 µM | [6] > 100 µM | [17] > 100 µM | [8] 41 µM | [9] > 100 µM | [18] > 100 µM | [11] > 100 µM | [12] > 100 µM | [13] > 100 µM | [14] > 100 µM | [15] > 100 µM

CCNC1=C(NC(=O)CC)C(=O)c2ccccc2C1=O
inactive: [1] > 100 µM | [3] > 100 µM | [4] 73.1 µM | [16] > 100 µM | [5] 34.8 µM | [7] > 10 µM | [17] 22.9 µM | [8] > 100 µM | [9] 70.8 µM | [10] 58.7 µM | [18] 32.1 µM | [11] 87.3 µM | [12] > 100 µM | [13] > 100 µM | [14] > 100 µM | [15] 74.5 µM
